27 compounds from patent US11365192B2, “Pyridine compound substituted with azole” (TAISHO PHARMACEUTICAL CO., LTD., priority 2017, dated 2022) can be followed below.

Holding throughout (assay type): biochemical
The test system of assay [1] is 20-HETE producing enzymes, human kidney microsome. In words: Inhibition test against 20-HETE producing enzymes using human kidney microsomes (LC-MS/MS). The conditions noted are these: for inhibitory activities against 20-HETE producing enzymes compared to compound A and compound B: comparison with compound A and compound B of WO03/022821, human kidney microsomes; for IC50: human kidney microsome 250 μg/mL protein, 20 μM arachidonic acid, 37° C. 45 minutes, LC-MS/MS. As to the method: (1) Inhibition Test for Each Compound of the Present Invention Against 20-HETE Producing Enzymes Using Human Kidney Microsomes
The reaction solution containing each compound [final concentration of 100 mM, KPO4 (pH 7.4), 20 μM Arachidonic acid, 4 mM NADPH] was added to the human kidney microsome (250 μg/mL protein). Following this, the microsome was left to stand at 37° C. for 45 minutes to perform 20-HETE producing reaction. After adding formic acid to stop the reaction, 9 times amount of acetonitrile was added, and deproteinization was carried out by centrifugation (1000 rpm, 4° C., 10 minutes). After that, the peak area value of 20-HETE was measured using a liquid chromatograph-tandem mass spectrometer (LC-MS/MS), and by using that value, the percent inhibition of 20-HETE producing enzyme (%) was calculated according to the equation described below, and the 50% inhibitory concentration (IC50 value) for each compound was calculated. Percent inhibition of 20-HETE producing enzyme (%)=[1−(A−B)/(C−B)]*100
A: Peak area value of 20-HETE/peak area value of internal standard substance with addition of compound
B: Peak area value of 20-HETE/peak area value of internal standard substance without addition of compound and NADPH
C: Peak area value of 20-HETE/peak area value of internal standard substance without addition of compound
(3) Inhibition Test for Compound a and Compound B Disclosed in WO03/022821 Against 20-HETE Producing Enzymes Using Human Kidney Microsomes
For compound A and compound B disclosed in WO03/022821, which have been described above, the 50% inhibitory concentration (IC50 value) against 20-HETE producing enzymes was calculated according to the method described in Test Example 2.
On the other hand, as described above, in Test Example 2, nonradioactive arachidonic acid was used as a substrate for 20-HETE producing reaction, and the amount of 20-HETE produced was measured using LC-MS/MS. In this case, the concentration of arachidonic acid, the substrate, is 20 μM.
In recent years, it is recommended that the substrate concentration for calculating the IC50 value be set at the Km value (Assay Guidance Manual, Sittampalam et. al. (URL: http://www.ncbi.nlm.nih.gov/books/NBK53196/)). According to this, in Test Example 2 described above, human kidney microsomes were used to calculate the Km value, and the calculated Km value of 20 μM was set as the concentration of the substrate, arachidonic acid.

A further assay addresses human CYP4A11 (Homo sapiens (Human), UniProt Q02928). In words: Inhibition test against 20-HETE producing enzyme CYP4A11 (luciferine derivative, luminescence). The procedure, abridged: (§1)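 IC50 derived from luminescence after 60 min at room temperature with membrane fractions of E. coli expressing each human CYP (100 μg/mL protein). For CYP4A11, 60 μM luciferin derivative in 100 mM Tris-HCl pH 7.5 with NADPH-regenerating system; for CYP4F2, 2.5 μM substrate, 1 mM NADPH, 50 mM KPO4 pH 7.4.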

The target in another assay is human CYP4F2 (Homo sapiens (Human), UniProt P78329). The assay can be described thus: Inhibition test against 20-HETE producing enzyme CYP4F2 (luciferine derivative, luminescence). The procedure, abridged: as §1
The mark [2] stands for this setting: E. coli membrane fraction expressing human CYP4A11, 60 μM luciferine derivative, room temperature 60 minutes.
Setting [3] is: E. coli membrane fraction expressing human CYP4F2, 2.5 μM luciferine derivative, room temperature 60 minutes.
Where [4] appears, read: human CYP4A11, luciferine derivative, luminescence.
Where [5] appears, read: human CYP4F2, luciferine derivative, luminescence.

human CYP4F2, sequence (P78329 5-520): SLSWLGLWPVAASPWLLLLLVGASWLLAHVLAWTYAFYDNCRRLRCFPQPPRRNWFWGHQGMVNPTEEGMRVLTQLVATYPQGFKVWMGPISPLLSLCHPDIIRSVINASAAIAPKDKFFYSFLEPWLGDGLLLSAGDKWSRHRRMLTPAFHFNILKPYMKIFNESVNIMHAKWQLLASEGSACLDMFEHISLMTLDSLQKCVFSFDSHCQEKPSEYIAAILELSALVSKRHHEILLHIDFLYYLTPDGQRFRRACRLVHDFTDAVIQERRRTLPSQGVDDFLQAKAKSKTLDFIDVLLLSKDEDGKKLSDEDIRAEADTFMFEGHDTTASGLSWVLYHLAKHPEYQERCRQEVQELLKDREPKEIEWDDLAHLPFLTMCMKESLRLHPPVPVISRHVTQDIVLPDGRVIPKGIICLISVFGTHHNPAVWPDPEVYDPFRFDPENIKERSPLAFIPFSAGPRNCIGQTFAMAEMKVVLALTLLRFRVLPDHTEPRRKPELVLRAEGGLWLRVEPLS
human CYP4A11, sequence (Q02928 5-519): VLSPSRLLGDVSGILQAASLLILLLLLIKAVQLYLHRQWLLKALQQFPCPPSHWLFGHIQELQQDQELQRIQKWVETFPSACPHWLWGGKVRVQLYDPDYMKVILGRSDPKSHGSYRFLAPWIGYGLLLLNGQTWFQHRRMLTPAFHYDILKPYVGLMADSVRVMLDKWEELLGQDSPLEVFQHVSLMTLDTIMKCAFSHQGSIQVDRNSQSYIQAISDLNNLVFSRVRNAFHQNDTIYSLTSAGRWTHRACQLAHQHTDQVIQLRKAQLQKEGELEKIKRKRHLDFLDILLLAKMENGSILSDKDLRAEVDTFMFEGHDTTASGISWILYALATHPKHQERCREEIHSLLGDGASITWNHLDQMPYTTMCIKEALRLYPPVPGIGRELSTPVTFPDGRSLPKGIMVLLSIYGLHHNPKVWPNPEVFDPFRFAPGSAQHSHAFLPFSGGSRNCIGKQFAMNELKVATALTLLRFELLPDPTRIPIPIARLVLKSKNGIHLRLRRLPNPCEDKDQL

On to `CC(C)(COc1cc(COc2ccc(-c3ccn[nH]3)nc2)ccn1)C(=O)O` [Example 22-14], for which the “inhibitory activities against 20-HETE producing enzymes compared to compound A and compound B” value in assay [1] was “stronger inhibitory activities”. Moreover, the IC50 (commonly the concentration that gives 50% inhibition) in assay [1] came to 32 nM; on human CYP4A11 (setting [2]) it was 70 nM; on human CYP4F2 (setting [3]) it was 380 nM.
In the same order, the values of `O=C(O)C1(F)CCN(S(=O)(=O)c2cccc(COc3ccc(-c4ccn[nH]4)nc3)c2)C1` (centres unmarked) [Example 22-11] are “stronger inhibitory activities”, 15 nM, 28 nM and 700 nM.
In the same order, the values of `O=C(O)C1CC1c1cccc(COc2ccc(-c3ccn[nH]3)nc2)c1` (single isomer, unassigned) [Example 26-2, trans-2-[3-[[6-(1H-Pyrazol-5-yl)-3-pyridinyl]oxymethyl]phenyl]-1-cyclopropanecarboxylic Acid (Optically Active Substance)] are “stronger inhibitory activities”, 26 nM, 23 nM and 890 nM.
`O=C(O)C12CC(CCCCCCOc3ccc(-c4ccn[nH]4)nc3)(C1)C2` [Example 1-53]: the “inhibitory activities against 20-HETE producing enzymes compared to compound A and compound B” value in assay [1] is reported as “stronger inhibitory activities”. The IC50 is 14 nM in assay [1], 61 nM on human CYP4A11 (setting [2]) and 330 nM on human CYP4F2 (setting [3]).
In the same order, the values of `O=C(O)C1(CCCCCCCCOc2ccc(-c3ccn[nH]3)nc2)CCOCC1` [Example 3-1, 4-[8-[[6-(1H-Pyrazol-5-yl)-3-pyridinyl]oxy]octyl]-4-oxanecarboxylic Acid] are “stronger inhibitory activities”, 10 nM, 190 nM and 24 nM.
Taken in the same sequence, the figures for `O=C(O)C1CCc2ccc(COc3ccc(-c4ccn[nH]4)nc3)cc2C1` (centres unmarked) [Example 1-56] were “stronger inhibitory activities”, 20 nM, 27 nM and 170 nM.
For `CC(=O)N1CCN(CCOc2ccc(-c3ccn[nH]3)cc2)CC1` [Compound A, reference compound], the figures for the half-inhibitory concentration (IC50) (in assay [1]; at human CYP4A11 (setting [2]); on human CYP4F2 (setting [3])) were 408 nM, 11000 nM and 1000 nM, respectively.
For the compound `O=C(O)C1(OCCCCCCCCOc2ccc(-c3ccn[nH]3)nc2)CCOCC1` [Example 68-1, 4-[8-[[6-(1H-Pyrazol-5-yl)-3-pyridinyl]oxy]octoxy]-4-oxanecarboxylic Acid], the “inhibitory activities against 20-HETE producing enzymes compared to compound A and compound B” value in assay [1] is on record as “stronger inhibitory activities”. Further, the IC50 in assay [1] was found to be 6.9 nM; against human CYP4A11 (setting [2]), 620 nM; against human CYP4F2 (setting [3]), 39 nM.
Consider `CCOC(=O)N1CCN(CCOc2ccc(-c3ccn[nH]3)cn2)CC1` [Compound B, reference compound], for which the IC50 is 15600 nM in assay [1], more than 50000 nM against human CYP4A11 (setting [2]) and 36000 nM against human CYP4F2 (setting [3]).
Turning to `O=C(O)C1CCCN(S(=O)(=O)c2cccc(COc3ccc(-c4ccn[nH]4)nc3)c2)C1` (centres unmarked) [Example 22-9], the “inhibitory activities against 20-HETE producing enzymes compared to compound A and compound B” value in assay [1] is listed as “stronger inhibitory activities”. The figures for the IC50 (in assay [1]; against human CYP4A11 (setting [2]); at human CYP4F2 (setting [3])) were 15 nM, 45 nM and 180 nM, respectively.
Turning to `O=C(O)c1ccc2c(c1)CC(COc1ccc(-c3ccn[nH]3)nc1)CC2` (centres unmarked) [Example 5-1, 7-[[6-(1H-Pyrazol-5-yl)-3-pyridinyl]oxymethyl]-5,6,7,8-tetrahydronaphthalene-2-carboxylic Acid], in assay [1], the “inhibitory activities against 20-HETE producing enzymes compared to compound A and compound B” value is given as “stronger inhibitory activities”. The concentration for half-maximal inhibition (IC50) in assay [1] was found to be 8.2 nM; at human CYP4A11 (setting [2]), 22 nM; against human CYP4F2 (setting [3]), 33 nM.
In the same order, the values of `O=C(O)C1CC1c1cccc(COc2ccc(-c3ccn[nH]3)nc2)c1` (single isomer, unassigned) [Example 26-3, trans-2-[3-[[6-(1H-Pyrazol-5-yl)-3-pyridinyl]oxymethyl]phenyl]-1-cyclopropanecarboxylic Acid (Optically Active Substance, Enantiomer of Compound of Example 26-2)] are “stronger inhibitory activities”, 30 nM, 24 nM and 1500 nM.
Taken in the same sequence, the figures for `O=C(O)C1CCc2ccc(COc3ccc(-c4ccn[nH]4)nc3)cc2O1` (centres unmarked) [Example 1-70] were “stronger inhibitory activities”, 37 nM, 62 nM and 140 nM.
Taken in the same sequence, the figures for `CC(C)(COCCCCCCOc1ccc(-c2ccn[nH]2)nc1)C(=O)O` [Example 1-57, 2,2-Dimethyl-3-[6-[[6-(1H-pyrazol-5-yl)-3-pyridinyl]oxy]hexoxy]propanoic Acid] were “stronger inhibitory activities”, 19 nM, 110 nM and 340 nM.
On to `O=C(O)c1cnn(CCCOc2ccc(-c3ccn[nH]3)nc2)c1` [Example 15-2, 1-[3-[[6-(1H-Pyrazol-5-yl)-3-pyridinyl]oxy]propyl]-4-pyrazolecarboxylic Acid], for which the IC50 is 690 nM on human CYP4A11 (setting [2]) and 25000 nM at human CYP4F2 (setting [3]).
In the same order, the values of `NC(=O)c1cccc(COc2ccc(-c3ccn[nH]3)nc2)c1` [Example 53-1, 3-[[6-(1H-Pyrazol-5-yl)-3-pyridinyl]oxymethyl]benzamide] are 110 nM and 190 nM.
In the same order, the values of `O=C(O)C12CCCC(CCCOc3ccc(-c4ccn[nH]4)nc3)(C1)C2` [Example 1-55] are 30 nM and 3700 nM.
Turning to `O=C(O)C1CC1c1ccc(CCOc2ccc(-c3ccn[nH]3)nc2)c(F)c1` (single isomer, unassigned) [Example 71-17], the results for the IC50 on human CYP4A11 (setting [4]) and at human CYP4F2 (setting [5]) were 250 nM and 520 nM, respectively.
In the case of `O=C(O)c1ccc(-c2cccc(COc3ccc(-c4ccn[nH]4)nc3)c2)cc1` [Example 31-2], the results for the 50% inhibitory concentration (IC50) against human CYP4A11 (setting [2]) and against human CYP4F2 (setting [3]) were 9.8 nM and 100 nM, respectively.
With `O=C(c1cccc(COc2ccc(-c3ccn[nH]3)nc2)c1)N1CCC(F)(C(=O)O)C1` (centres unmarked) [Example 45-37], the 50% inhibitory concentration (IC50) on human CYP4A11 (setting [4]) is 120 nM; at human CYP4F2 (setting [5]), 720 nM.
With `O=C(N[C@H]1C[C@H](C(=O)O)C1)c1cccc(COc2ccc(-c3ccn[nH]3)nc2)c1` [Example 45-22], the IC50 against human CYP4A11 (setting [4]) stood at 97 nM; against human CYP4F2 (setting [5]) it was 2800 nM.
In the same order, the values of `O=C(N[C@H]1C[C@@H](C(=O)O)C1)c1cccc(COc2ccc(-c3ccn[nH]3)nc2)c1` [Example 45-21] are 580 nM and 6100 nM.
In the case of `O=C(O)C1CC1c1cccc(COc2ccc(-c3ccn[nH]3)nc2)c1F` (single isomer, unassigned) [Example 71-45, 2-[2-Fluoro-3-[[6-(1H-pyrazol-5-yl)pyridin-3-yl]oxymethyl]phenyl]cyclopropane-1-carboxylic Acid], the figures for the IC50 at human CYP4A11 (setting [4]) and against human CYP4F2 (setting [5]) were 15 nM and 210 nM, respectively.
On to `NS(=O)(=O)CCCCCOc1ccc(-c2ccn[nH]2)nc1` [Example 11-4, 5-[[6-(1H-Pyrazol-5-yl)-3-pyridinyl]oxy]-1-pentanesulfonamide], for which the IC50 came out at 4500 nM against human CYP4A11 (setting [2]) and 1300 nM at human CYP4F2 (setting [3]).
In the case of `O=C(O)C[C@@H]1CCN(C(=O)c2cccc(COc3ccc(-c4ccn[nH]4)nc3)c2)C1` [Example 45-40], the IC50 on human CYP4A11 (setting [4]) was 410 nM; against human CYP4F2 (setting [5]), 1400 nM.
With `CCCNC(=O)c1cccc(COc2ccc(-c3ccn[nH]3)nc2)c1` [Example 42-2], the concentration for half-maximal inhibition (IC50) on human CYP4A11 (setting [2]) was 110 nM; against human CYP4F2 (setting [3]), 25 nM.
Turning to `CC(C)(CNC(=O)c1cccc(COc2ccc(-c3ccn[nH]3)nc2)c1)C(=O)O` [Example 45-3], the results for the IC50 on human CYP4A11 (setting [4]) and on human CYP4F2 (setting [5]) were 91 nM and 6100 nM, respectively.
